Assay results published in publication PMC4204849, “Lifespan Based Pharmacokinetic-Pharmacodynamic Model of Tumor Growth Inhibition by Anticancer Therapeutics” (PLoS ONE, 2014).
Converted amounts (≈) assume the structure as drawn. Marks after values point to notes of the source that are not given here.

Columns and labels:
[1] = Pharmacokinetic study of AZD1208, single oral administration, one-compartment model; format: in vivo, mice; settings: single oral 3, 10, 30 mg/kg
Experimental: For pharmacokinetic study of AZ968, CD1 mice were given single i.p. injection of AZ968 at 10, 20 or 30 mg/kg with 3 mice per dose group. Blood samples were collected via cardiac puncture. Total plasma concentrations of AZ968 were determined by LC/MS/MS method. Same procedure was used for the pharmacokinetic study of AZD1208, except AZD1208 was administered orally (p.o.) at 3, 10 or 30 mg/kg doses as outlined in the original study.
(§1) Data for this case study was provided by AstraZeneca. For the purpose of this case study we will set time according to when the first dose of AZD1208 was administered, which we count as day 1. We began with a compartmental PK analysis after a single oral administration of AZD1208 at 3, 10 and 30 mg/kg and found it well described using a one-compartment PK model with first order absorption as shown in Figure 9A.

MOLM-16 tumor cell = assay: Tumor growth inhibition by AZD1208 in xenograft, lifespan TGI model (non-cycle-specific, Emax); format: in vivo, mice
Experimental: as §1
After establishing the PK model, we fit the TGI data using the lifespan TGI model. Since AZD1208 is a pan-Pim kinase inhibitor that promotes apoptosis at any stages of cell cycle, the data were analyzed using the non-cycle-specific model. […] In order to adapt the lifespan TGI model to account for only exponential growth we simply set the tumor threshold, wth, to a very large value well beyond the observed values of tumor size. Another unique feature of this dataset is the inclusion of saturating doses. To accommodate the dose ranges we replaced the drug potency constant, k2, in eq. 18 with the Emax model. The process of fitting was the same as for the previous studies, however, in this study the control data were very sparse and the doubling time, T, could not be estimated. In order to proceed with the analysis we set T = 3 days based on the doubling time reported by the commercial vendor of the MOLM-16 tumor cell used in the study, which was similar to the doubling reported the original study when the cells were initially collected. […] The remaining parameters were estimated with high precision and are well within biologically feasible ranges (see Table 6).

[2] = parameters: method as in PMID 14871843; settings: two-compartment model, parameter fixed, cited from earlier work
[3] = tested on: tumors derived from the HCT116 human colon carcinoma cell line; assay: Tumor growth inhibition by paclitaxel in xenograft mice, lifespan TGI model with cycle-specific drug effect; format: in vivo; settings: for TA (duration of apoptosis): 30 mg/kg i.v. every 4 days from day 8, grid search, then fixed, data digitized from ref 11; for Emax (maximum effect): fixed to 1 due to lack of escalating doses
From the text: (§2) Data used in Case Study 1 was obtained from mouse xenograft study reported by Simeoni and colleague. […] Data from the study was digitized using Graph Digitizer 2.0 (Nick's Production).

[4] = mouse, in vivo, iv, 30 mg/kg
From the text: as §2

Compound | V/F [1] | elimination rate constant, kel [1] | ka [1] | TA (duration of apoptosis) (MOLM-16 tumor cell; 0.3, 1, 3, 10, 30 mg/kg orally, parameter was fixed) | Emax (MOLM-16 tumor cell; Emax model replacing k2 in non-cycle-specific model) | EC50 (MOLM-16 tumor cell; plasma concentration, Emax model, non-cycle-specific model) | V ([2]; i.v. paclitaxel) | k12 [2] | k21 [2] | kel [2] | TA (duration of apoptosis) [3] | TA (duration of apoptosis) ([3]; listed as Paclitaxel) | Emax (maximum effect) [3] | Emax (maximum effect) ([3]; listed as Paclitaxel) | peak plasma concentration [4]
N[C@@H]1CCCN(c2c(/C=C3\SC(=O)NC3=O)cccc2-c2ccccc2)C1 [AZD1208] | 4.86 L/kg | same value as ka | 5.52 day⁻¹ | 1.92 ^a days | 0.159 | 0.182 mg/L (≈ 0.48 µM) |  |  |  |  |  |  |  |  | 
CC(=O)O[C@H]1C(=O)[C@@]2(C)[C@H]([C@H](OC(=O)c3ccccc3)[C@]3(O)C[C@H](OC(=O)[C@H](O)[C@@H](NC(=O)c4ccccc4)c4ccccc4)C(C)=C1C3(C)C)[C@]1(OC(C)=O)CO[C@@H]1C[C@@H]2O [paclitaxel] |  |  |  |  |  |  | 0.81 L/kg | 0.006 h⁻¹ | 0.0838 h⁻¹ | 0.868 h⁻¹ | 0.536 days | 0.536 ^a days | 1 | 1 ^a | 37040 ng/mL
